Results from article PMC7018746, “An efficient and targeted synthetic approach towards new highly substituted 6-amino-pyrazolo[1,5-a]pyrimidines with α-glucosidase inhibitory activity” (Scientific Reports, 2020).
Where two headings read alike, the source gives them in different places.

Tests used:
[1] = Cytotoxicity studies, PANC-1; assay type: cell-based, human; conditions: human, PANC-1 pancreatic cancer cells
Description: (§1) The cytotoxicity of some of potent compounds including 3d, 3m, 3v, and 3af was evaluated through use of the breast cancer cell line MDA-MB-231 and human pancreatic cancer cell line PANC-1.

[2] = tested on: human pancreatic cancer cell line PANC-1; assay: Cytotoxicity studies, PANC-1; assay type: cell-based; conditions: PANC-1, at concentration of 100 µM
Description: as §1

[3] = Cytotoxicity studies, MDA-MB-231; assay type: cell-based; conditions: human, MDA-MB-231 breast cancer cells
Description: as §1

[4] = tested on: breast cancer cell line MDA-MB-231; assay: Cytotoxicity studies, MDA-MB-231; assay type: cell-based; conditions: MDA-MB-231, at concentration of 100 µM
Description: as §1

[5] = target: T1, α-glucosidase (Saccharomyces cerevisiae, EC.3.2.1.20) (Saccharomyces cerevisiae, UniProt P53341); assay: biochemical; assay type: biochemical; conditions: for IC50: mean ± SD, at least three experiments, read-out: IC50 (µM), in vitro α-glucosidase inhibitory activity
T1 construct: purchased Sigma-Aldrich
T1 sequence (P53341 whole entry): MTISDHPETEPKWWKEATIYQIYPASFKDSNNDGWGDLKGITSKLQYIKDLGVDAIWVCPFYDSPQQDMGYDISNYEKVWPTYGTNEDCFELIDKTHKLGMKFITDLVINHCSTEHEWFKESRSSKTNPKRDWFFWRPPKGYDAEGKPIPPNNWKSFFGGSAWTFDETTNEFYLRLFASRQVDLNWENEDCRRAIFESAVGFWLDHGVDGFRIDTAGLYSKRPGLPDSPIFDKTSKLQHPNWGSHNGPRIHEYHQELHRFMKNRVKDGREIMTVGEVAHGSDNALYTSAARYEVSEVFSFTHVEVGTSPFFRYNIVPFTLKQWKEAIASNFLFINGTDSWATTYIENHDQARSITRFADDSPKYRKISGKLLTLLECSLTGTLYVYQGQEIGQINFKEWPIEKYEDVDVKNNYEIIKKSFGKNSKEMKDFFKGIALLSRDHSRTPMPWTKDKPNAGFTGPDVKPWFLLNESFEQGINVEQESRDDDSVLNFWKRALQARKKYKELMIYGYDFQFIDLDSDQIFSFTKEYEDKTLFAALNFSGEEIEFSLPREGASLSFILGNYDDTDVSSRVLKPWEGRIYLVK
Description: α-Glucosidase enzyme (EC3.2.1.20, Saccharomyces cerevisiae, 20 U/mg) and substrate (p-nitrophenyl glucopyranoside) were purchased from Sigma-Aldrich. […] Finally, the change in absorbance was measured at 405 nm by using spectrophotometer (Gen5, Power wave xs2, BioTek, America). DMSO (10% final concentration) and acarbose were used respectively as control and standard drug. The percentage of enzyme inhibitionwas calculated and IC50 values were obtained from non-linear regression curve using the Logit method.

α-glucosidase = target: T2, α-glucosidase (Saccharomyces cerevisiae, UniProt P53341); assay: Enzyme kinetic studies (Lineweaver-Burk and secondary plots); assay type: biochemical; conditions: for inhibition type: Lineweaver-Burk plot: Km increased, Vmax unchanged; for Ki: estimated from plot of Km versus inhibitor concentration, read-out: inhibition constant, Ki
T2 construct: purchased Sigma-Aldrich
T2 sequence (P53341 whole entry): as above
Description: The inhibition mode of the synthesized compounds 3 against α-glucosidase was investigated. […]. The inhibition type was indicated on the basis of Michaelis-Menten and Lineweaver-Burk plots. […] […]. The […] of enzyme solution (1 U/mL) was incubated with different concentrations (0, 5, 10, and 15 µM) of selected compounds for 15 min at 30 °C. The reaction was then started by adding different concentrations of substrate (p-nitrophenyl glucopyranoside, 1-10 mM), and change in absorbance was measured for 20 min at 405 nm by using spectrophotometer (Gen5, Power wave xs2, BioTek, America).

melting point [°C] | IC50 ([5]; Table 1, compounds 3a-z) [µM] | Structure (SMILES) | IC50 [1] [µM] | cytotoxic activity [2] | IC50 [3] [µM] | cytotoxic activity [4] | IC50 ([5]; Table 2, compounds 3aa-ai) [µM] | inhibition type (α-glucosidase) | Ki (α-glucosidase) [µM] | fold more potent than acarbose ([5]; ratio of α-glucosidase IC50 values vs acarbose)
282 to 283 | 24.7 ± 1.1 | COc1ccc(NC(=O)c2c(Nc3ccccc3)nn3c(-c4ccc(Br)cc4)c(N)c(-c4ccc(C)cc4)nc23)cc1 [3m, 6-Amino-7-(4-bromophenyl)-N-(4-methoxyphenyl)-2-(phenylamino)-5-p-tolylpyrazolo[1,5-a]pyrimidine-3-carboxamide] | > 200 | did not possess any cytotoxic activity | > 200 | did not possess any cytotoxic activity | – | – | – | –
240 to 242 | 18.4 ± 0.6 | COc1ccc(NC(=O)c2c(Nc3ccccc3)nn3c(-c4cccs4)c(N)c(-c4ccc(Cl)cc4)nc23)cc1 [3r, 6-Amino-5-(4-chlorophenyl)-N-(4-methoxyphenyl)-2-(phenylamino)-7-(thiophen-2-yl)pyrazolo[1,5-a]pyrimidine-3-carboxamide] | – | – | – | – | – | – | – | –
274 to 275 | 42.3 ± 3.1 | Nc1c(-c2ccccc2)nc2c(C(=O)Nc3ccc(Cl)cc3)c(Nc3ccccc3)nn2c1-c1ccc(Cl)cc1 [3s, 6-Amino-N,7-bis(4-chlorophenyl)-5-phenyl-2-(phenylamino)pyrazolo[1,5-a]pyrimidine-3-carboxamide] | – | – | – | – | – | – | – | –
294 to 296 | 60 ± 4 | Nc1c(-c2ccccc2)nc2c(C(=O)Nc3ccc(Cl)cc3)c(Nc3ccccc3)nn2c1-c1ccc(Br)cc1 [3t, 6-Amino-7-(4-bromophenyl)-N-(4-chlorophenyl)-5-phenyl-2-(phenylamino)pyrazolo[1,5-a]pyrimidine-3-carboxamide] | – | – | – | – | – | – | – | –
281 to 282 | 55.6 ± 3.6 | Cc1ccc(-c2nc3c(C(=O)Nc4ccc(Cl)cc4)c(Nc4ccccc4)nn3c(-c3ccc(Cl)cc3)c2N)cc1 [3u, 6-Amino-N,7-bis(4-chlorophenyl)-2-(phenylamino)-5-p-tolylpyrazolo[1,5-a]pyrimidine-3-carboxamide] | – | – | – | – | – | – | – | –
271 to 273 | 17.6 ± 0.6 | Cc1ccc(-c2nc3c(C(=O)Nc4ccc(Cl)cc4)c(Nc4ccccc4)nn3c(-c3ccc(Br)cc3)c2N)cc1 [3v, 6-Amino-7-(4-bromophenyl)-N-(4-chlorophenyl)-2-(phenylamino)-5-p-tolylpyrazolo[1,5-a]pyrimidine-3-carboxamide] | > 200 | did not possess any cytotoxic activity | > 200 | did not possess any cytotoxic activity | – | – | – | –
255 to 257 | 53.7 ± 3.4 | COc1ccc(-c2nc3c(C(=O)Nc4ccc(Cl)cc4)c(Nc4ccccc4)nn3c(-c3ccccc3)c2N)cc1 [3w, 6-Amino-N-(4-chlorophenyl)-5-(4-methoxyphenyl)-7-phenyl-2-(phenylamino)pyrazolo[1,5-a]pyrimidine-3-carboxamide] | – | – | – | – | – | – | – | –
255 to 257 | 80.3 ± 5.2 | Nc1c(-c2ccc(Cl)cc2)nc2c(C(=O)Nc3ccc(Cl)cc3)c(Nc3ccccc3)nn2c1-c1ccccc1 [3x, 6-Amino-N,5-bis(4-chlorophenyl)-7-phenyl-2-(phenylamino)pyrazolo[1,5-a]pyrimidine-3-carboxamide] | – | – | – | – | – | – | – | –
268 to 270 | 38.2 ± 2.8 | Nc1c(-c2ccc(Cl)cc2)nc2c(C(=O)Nc3ccc(Cl)cc3)c(Nc3ccccc3)nn2c1-c1ccc(Cl)cc1 [3y, 6-Amino-N,5,7-tris(4-chlorophenyl)-2-(phenylamino)pyrazolo[1,5-a]pyrimidine-3-carboxamide] | – | – | – | – | – | – | – | –
274 to 276 | 19.3 ± 0.9 | Nc1c(-c2ccc(Cl)cc2)nc2c(C(=O)Nc3ccc(Cl)cc3)c(Nc3ccccc3)nn2c1-c1cccs1 [3z, 6-Amino-N,5-bis(4-chlorophenyl)-2-(phenylamino)-7-(thiophen-2-yl)pyrazolo[1,5-a]pyrimidine-3-carboxamide] | – | – | – | – | – | – | – | –

Structure (SMILES) | melting point [°C] | IC50 ([5]; Table 1, compounds 3a-z) [µM] | IC50 [1] [µM] | cytotoxic activity [2] | IC50 [3] [µM] | cytotoxic activity [4] | IC50 ([5]; Table 2, compounds 3aa-ai) [µM] | inhibition type (α-glucosidase) | Ki (α-glucosidase) [µM] | fold more potent than acarbose ([5]; ratio of α-glucosidase IC50 values vs acarbose)
CCOC(=O)c1c(-c2ccccc2)nn2c(-c3ccc(Cl)cc3)c(N)c(-c3ccc(OC)cc3)nc12 [3af, Ethyl 6-amino-7-(4-chlorophenyl)-5-(4-methoxyphenyl)-2-phenylpyrazolo[1,5-a]pyrimidine-3-carboxylate] | 226 to 228 | – | > 200 | did not possess any cytotoxic activity | > 200 | did not possess any cytotoxic activity | 65.5 ± 3 | competitive inhibition | 65 | –
Cc1ccc(-c2nc3c(C(=O)Nc4ccccc4)c(Nc4ccccc4)nn3c(-c3ccc(Br)cc3)c2N)cc1 [3d, 6-Amino-7-(4-bromophenyl)-N-phenyl-2-(phenylamino)-5-p-tolylpyrazolo[1,5-a]pyrimidine-3-carboxamide] | – | 15.2 ± 0.4 | > 200 | did not possess any cytotoxic activity | > 200 | did not possess any cytotoxic activity | – | competitive inhibition | 12 | around 50 fold
